For series [1], the system named is LNCaP cell line, an AR sensitive cell line. Put plainly: cell viability assay (Cell-titer blue), LNCaP. Format: cell-based. As to conditions: Homo sapiens, read-out: LNCaP CTB IC50. The procedure:
(§1) All compounds were evaluated in a reporter gene assay (22Rv1 cell line lentiviral transduced with CMV-firefly luciferase) to monitor transcriptional effects and two cell viability assays (Cell-titer blue; PC3 cell line, an AR insensitive cell line, and LNCaP cell line, an AR sensitive cell line). The compounds were also monitored for aggregation.

In series [2] the test system is PC3 cell line, an AR insensitive cell line. The experiment in a line: cell viability assay (Cell-titer blue), PC3. As to conditions: Homo sapiens, PC-3, read-out: PC3 CTB IC50. Format: cell-based. The procedure: as §1
A further series can be described thus: Solubility. Format: physicochemical.
Series [3] concerns 22Rv1 cell line lentiviral transduced with CMV-firefly luciferase. Put plainly: reporter gene assay to monitor transcriptional effects. Format: cell-based. As to conditions: Homo sapiens; 22Rv1, CMV-firefly luciferase. How it is done: as §1
A general note: Reporter assays use an easily measured gene product as a stand-in for the process of interest.

Values after ≈ are worked out from the molar mass of the structure shown. Read-outs that look alike come from different tables or passages of the source.

In general, IC50 refers to the point on the concentration scale where inhibition reaches its midpoint. By Solubility is commonly meant how much of the substance goes into solution per volume. For the compound `O=C(NCCC1CC2C=CC1C2)c1cccc(OC2CCN(C(=O)C3CCCC3)CC2)c1` (stereo not drawn) [Compound I-3], the IC50 in series [1] is 16.7 µM; in series [2], 3560 µM; in series [3], ~24.6 µM. For the same compound, the “Solubility” value in “Solubility” was 25 mM (≈ 10.9 mg/mL).
Taken in the same sequence, the figures for `O=C(NCCC1CC2C=CC1C2)c1cccc(OC2CCN(C(=O)C3CCCCC3)CC2)c1` (stereo not drawn) [Compound I-4] were 24.3 µM, 33400 µM, ~25.2 µM and 25 mM (≈ 11.3 mg/mL).
With `O=C(NCCC1CC2C=CC1C2)c1cccc(OC2CCN(C(=O)C3CCC3)CC2)c1` (stereo not drawn) [Compound I-5], the results for the IC50 in series [1] and in series [3] were 24.6 µM and ~25.2 µM, respectively. Also, the “Solubility” value in the series “Solubility” is reported as 25 mM (≈ 10.6 mg/mL).
Taken in the same sequence, the figures for `O=C(NCCC1CC2C=CC1C2)c1cccc(OC2CCN(C(=O)c3ccccc3)CC2)c1` (stereo not drawn) [Compound I-6] were 8.2 µM, ~24.9 µM and 25 mM (≈ 11.1 mg/mL).
For `O=C(NCCC1CC2C=CC1C2)c1cccc(OC2CCN(C(=O)Cc3ccccc3)CC2)c1` (stereo not drawn) [Compound I-7] the same measures were 52.4 µM, ~25.9 µM and 25 mM (≈ 11.5 mg/mL).
For `O=C(NCCC1CC2C=CC1C2)c1cccc(OC2CCN(C(=O)C(F)(F)F)CC2)c1` (stereo not drawn) [Compound I-8] the same measures were 70.5 µM, 21.9 µM and 25 mM (≈ 10.9 mg/mL).
For the compound `O=C(NCCC1CC2C=CC1C2)c1cccc(OC2CCN(C(=O)c3cccnc3)CC2)c1` (stereo not drawn) [Compound I-9], the 50% inhibitory concentration (IC50) in series [1] was found to be 355 µM. In “Solubility”, the “Solubility” value is 25 mM (≈ 11.1 mg/mL).
Turning to `O=C(NCCC1CC2C=CC1C2)c1ccc(OC2CCN(C(=O)C3CC3)CC2)cc1` (stereo not drawn) [Compound I-10], the “Solubility” value in the series “Solubility” is recorded as 25 mM (≈ 10.2 mg/mL).
Regarding `O=C(NCC1CC2C=CC1C2)c1cccc(OC2CCN(C(=O)C3CC3)CC2)c1` (stereo not drawn) [Compound I-11], in “Solubility”, the “Solubility” value is listed as 25 mM (≈ 9.86 mg/mL). This compound also had a concentration for half-maximal inhibition (IC50) in series [3] of 28.3 µM.
Regarding `O=C(NCC12CC3CC(CC(C3)C1)C2)c1cccc(OC2CCN(C(=O)C3CC3)CC2)c1` [Compound I-13], the IC50 in series [1] was 172 µM. Besides, the “Solubility” value in the series “Solubility” stood at 25 mM (≈ 10.9 mg/mL).
For `CC(NC(=O)c1cccc(OC2CCN(C(=O)C3CC3)CC2)c1)C12CC3CC(CC(C3)C1)C2` (stereo not drawn) [Compound I-14], the “Solubility” value in “Solubility” is on record as 25 mM (≈ 11.3 mg/mL).
Consider `O=C(NCC1CC2C=CC1C2)c1cccc(OC2CCN(C(=O)C(F)(F)F)CC2)c1` (stereo not drawn) [Compound I-17], for which the results for the IC50 in series [1] and in series [3] were 18.4 µM and 5.21 µM, respectively. In addition, in “Solubility”, the “Solubility” value was 25 mM (≈ 10.6 mg/mL).
For the compound `O=C(NCC1CC2C=CC1C2)c1cccc(OC2CCN(C(=O)C3CCC3)CC2)c1` (stereo not drawn) [Compound I-18], the half-maximal inhibitory concentration (IC50) was 41.2 µM in series [1] and ~24.4 µM in series [3]. Besides, the “Solubility” value in “Solubility” worked out at 25 mM (≈ 10.2 mg/mL).
As for `CC(=O)Oc1cccc(C(=O)NCC2CC3C=CC2CC3)c1` (stereo not drawn) [Compound I-19], the “Solubility” value in the series “Solubility” is reported as 25 mM (≈ 7.48 mg/mL).
With `O=C(NCC1CC2C=CC1CC2)c1cccc(O)c1` (stereo not drawn) [Compound I-20], the “Solubility” value in the series “Solubility” came out at 25 mM (≈ 6.43 mg/mL).
Take `CCCC(CCC)C(=O)N1CCC(Oc2cccc(C(=O)NCCC3CC4C=CC3C4)c2)CC1` (stereo not drawn) [Compound I-21]: the IC50 in series [1] came out at 342 µM. Moreover, in “Solubility”, the “Solubility” value was found to be 25 mM (≈ 11.7 mg/mL).
Take `O=C(NCCC1CC2C=CC1C2)c1cccc(OC2CCN(C(=O)CCc3ccc(Cl)cc3)CC2)c1` (stereo not drawn) [Compound I-22]: in series [1], the IC50 came to 3580 µM. For the same compound, the Solubility in the series “Solubility” (read-out: Solubility) was determined as 6.25 mM (≈ 3.17 mg/mL).
Turning to `O=C(NCC1CC2C=CC1CC2)c1cccc(OC2CCN(C(=O)C3CC3)CC2)c1` (stereo not drawn) [Compound I-23], the IC50 in series [1] was 1020 µM; in series [3] it was ~25.5 µM. Also, in the series “Solubility”, the “Solubility” value was determined as 25 mM (≈ 10.2 mg/mL).
As to `CN(Cc1cccc2ncccc12)C(=O)c1cccc(OC2CCN(C(=O)C3CC3)CC2)c1` [Compound I-24], the half-inhibitory concentration (IC50) in series [1] was determined as 1650 µM; in series [3], 20.4 µM. The Solubility in “Solubility” (read-out: Solubility) was 12.5 mM (≈ 5.54 mg/mL).
In the case of `O=C(NCC1CC2C=CC1CC2)c1ccc(OC2CCN(C(=O)C3CC3)CC2)cc1` (stereo not drawn) [Compound I-25], the IC50 in series [1] was 388 µM. Besides, in “Solubility”, the “Solubility” value is recorded as 25 mM (≈ 10.2 mg/mL).
In the case of `O=C(NCCCc1ccccc1)c1cccc(OC2CCN(C(=O)C3CC3)CC2)c1` [Compound I-26], the results for the IC50 in series [1] and in series [2] were 222 µM and 341 µM, respectively. For the same compound, the “Solubility” value in the series “Solubility” is given as 25 mM (≈ 10.2 mg/mL).
As for `O=C(Nc1ccc2ccccc2c1)c1cccc(OC2CCN(C(=O)C3CC3)CC2)c1` [Compound I-27], the IC50 worked out at 28.5 µM in series [1] and 49.9 µM in series [2]. The Solubility in “Solubility” (read-out: Solubility) was determined as 12.5 mM (≈ 5.18 mg/mL).
As for `O=C(Nc1ccc(Cl)cc1)c1cccc(OC2CCN(C(=O)C3CC3)CC2)c1` [Compound I-28], the IC50 in series [1] was 698 µM; in series [2] it was 176 µM. In “Solubility”, the “Solubility” value is 25 mM (≈ 9.97 mg/mL).
For the compound `CC(C)c1ccc(NC(=O)c2cccc(OC3CCN(C(=O)C4CC4)CC3)c2)cc1` [Compound I-29], the IC50 in series [1] amounted to 25.1 µM. In addition, the “Solubility” value in “Solubility” was 25 mM (≈ 10.2 mg/mL).
Taken in the same sequence, the figures for `O=C(Nc1ccccc1)c1cccc(OC2CCN(C(=O)C3CC3)CC2)c1` [Compound I-30] were 136 µM and 25 mM (≈ 9.11 mg/mL).
Consider `O=C(NCc1ccccc1)c1cccc(OC2CCN(C(=O)C3CC3)CC2)c1` [Compound I-31], for which the IC50 in series [1] amounted to 62.6 µM; in series [2], 166 µM. The “Solubility” value in “Solubility” is 25 mM (≈ 9.46 mg/mL).
Take `O=C(NCCC1CCCCC1)c1cccc(OC2CCN(C(=O)C3CC3)CC2)c1` [Compound I-32]: the IC50 in series [1] was 79.2 µM; in series [2], 101 µM. Also, in “Solubility”, the “Solubility” value turned out to be 25 mM (≈ 9.96 mg/mL).
Turning to `CCCCC(=O)N1CCC(Oc2cccc(C(=O)NCCC3CC4C=CC3C4)c2)CC1` (stereo not drawn) [Compound I-34], the IC50 was 28.8 µM in series [1], 55.8 µM in series [2] and ~27.9 µM in series [3]. Also, the Solubility in the series “Solubility” (read-out: Solubility) came out at 12.5 mM (≈ 5.31 mg/mL).
Turning to `C=CCCC(=O)N1CCC(Oc2cccc(C(=O)NCCC3CC4C=CC3C4)c2)CC1` (stereo not drawn) [Compound I-35], the IC50 in series [1] worked out at 26.5 µM; in series [3] it was 31.5 µM. Besides, in the series “Solubility”, the “Solubility” value was 25 mM (≈ 10.6 mg/mL).
With `CC(=O)CCC(=O)N1CCC(Oc2cccc(C(=O)NCCC3CC4C=CC3C4)c2)CC1` (stereo not drawn) [Compound I-36], the IC50 in series [2] came to 80.5 µM. In “Solubility”, the “Solubility” value is listed as 25 mM (≈ 11 mg/mL).
Taken in the same sequence, the figures for `O=C(NCC1C2C=CC(C2)C1CO)c1ccc(OC2CCN(C(=O)C3CC3)CC2)cc1` (stereo not drawn) [Compound I-37] were 1150 µM and 25 mM (≈ 10.6 mg/mL).
For the compound `CCOC(=O)C1C2C=CC(C2)C1CNC(=O)c1ccc(OC2CCN(C(=O)C3CC3)CC2)cc1` (stereo not drawn) [Compound I-38], the half-maximal inhibitory concentration (IC50) in series [2] was found to be 1890 µM. Also, in the series “Solubility” (read-out: Solubility), the Solubility came to 12.5 mM (≈ 5.83 mg/mL).
Regarding `O=C(NCC1CC2C=CC1CC2)c1cccc(OC2CCN(C(=O)C(F)(F)F)CC2)c1` (stereo not drawn) [Compound I-39], the results for the IC50 in series [1] and in series [2] were 397 µM and 93.9 µM, respectively. In “Solubility”, the “Solubility” value was found to be 25 mM (≈ 10.9 mg/mL).
For `O=C(NCC1CC2C=CC1CC2)c1cccc(OC2CCN(C(=O)c3cccnc3)CC2)c1` (stereo not drawn) [Compound I-40], the IC50 in series [1] is 120 µM; in series [2] it was 90.3 µM. In addition, the “Solubility” value in “Solubility” amounted to 25 mM (≈ 11.1 mg/mL).
For `Cc1c(C(=O)N(C)Cc2cccc3ncccc23)sc2ncnc(NCC3C4C=CC(C4)C3CO)c12` (stereo not drawn) [II-3] the same measures were 493 µM, 3210 µM and 25 mM (≈ 12.5 mg/mL).
For `Cc1c(C(=O)N(C)Cc2cccc3ncccc23)sc2ncnc(NCCC3CCCCC3)c12` [II-4], the IC50 in series [1] was 10.7 µM; in series [3] it was 9.63 µM. In addition, the “Solubility” value in the series “Solubility” came to 25 mM (≈ 11.8 mg/mL).
On to `Cc1c(C(=O)N(C)Cc2cccc3ncccc23)sc2ncnc(NCC3CC4C=CC3CC4)c12` (stereo not drawn) [II-5], for which the half-inhibitory concentration (IC50) came out at 8.09 µM in series [1], 782 µM in series [2] and 2.36 µM in series [3]. Also, the “Solubility” value in “Solubility” was determined as 25 mM (≈ 12.1 mg/mL).
Taken in the same sequence, the figures for `Cc1c(C(=O)N(C)Cc2cccc3ncccc23)sc2ncnc(NCCC3CC4C=CC3C4)c12` (stereo not drawn) [II-6] were 14.1 µM, 1680 µM, 8.29 µM and 25 mM (≈ 12.1 mg/mL).
In the case of `Cc1c(C(=O)Nc2ccc3ccccc3c2)sc2ncnc(NCC3CC4C=CC3C4)c12` (stereo not drawn) [II-7], the IC50 in series [1] amounted to 68.2 µM. Also, in the series “Solubility”, the “Solubility” value came to 25 mM (≈ 11 mg/mL).
